The structures appear in SMILES notation.

The source of these data is ChEMBL document CHEMBL5331119, “Basic Nitrogen (BaN) Is a Key Property of Antimalarial Chemical Space” (J Med Chem, 2023).

The subject of series [1] is Plasmodium falciparum. Description: Antiplasmodial activity against Plasmodium falciparum NF54 assessed as inhibition of parasite growth by microdilution analysis. In kind it is functional, organism-based.
Series [2] deals with Plasmodium falciparum. Description: Antiplasmodial activity against Plasmodium falciparum K1 assessed as inhibition of parasite growth by microdilution analysis. The class given is functional, organism-based.
The target of series [3] is human dihydroorotate dehydrogenase (DHODH), mitochondrial (Homo sapiens, UniProt Q02127). In words: in vitro.
Description: Inhibition of human DHODH
In series [4] the test system is Plasmodium falciparum. Description: Antiplasmodial activity against Plasmodium falciparum 3D7. In kind it is functional, organism-based.
Series [5] concerns Plasmodium falciparum. Description: Antiplasmodial activity against Plasmodium falciparum NF54 incubated for 48 hrs by lactate dehydrogenase assay. In kind it is functional, organism-based. Conditions: NF54, 48 h.
Series [6] has as its system Plasmodium falciparum. Description: Antimalarial activity against Plasmodium falciparum FcB1. In kind it is functional, organism-based.

Chain of human dihydroorotate dehydrogenase (DHODH), mitochondrial (Q02127 whole entry): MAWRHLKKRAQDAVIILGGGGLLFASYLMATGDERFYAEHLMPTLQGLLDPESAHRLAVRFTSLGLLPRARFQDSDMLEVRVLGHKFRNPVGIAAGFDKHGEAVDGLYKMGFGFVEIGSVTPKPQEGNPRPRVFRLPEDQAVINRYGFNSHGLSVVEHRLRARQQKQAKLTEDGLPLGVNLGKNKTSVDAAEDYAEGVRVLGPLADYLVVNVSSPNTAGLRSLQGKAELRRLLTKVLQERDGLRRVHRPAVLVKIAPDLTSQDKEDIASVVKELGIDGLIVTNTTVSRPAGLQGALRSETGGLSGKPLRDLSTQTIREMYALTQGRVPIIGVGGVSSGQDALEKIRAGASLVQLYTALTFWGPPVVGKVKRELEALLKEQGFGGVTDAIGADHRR

Take `CCN(CC)CCCC(C)Cc1ccnc2cc(Cl)ccc12` (stereo not drawn): the 50% inhibitory concentration (IC50) in the series on Plasmodium falciparum [1] and with Plasmodium falciparum [2] was 3000 nM each time.

For the molecule `CCN(CC)CCCC(C)Nc1cccc2cc(Cl)ccc12` (stereo not drawn), the IC50 with Plasmodium falciparum [1] and with Plasmodium falciparum [2] was 3000 nM in each case.

In the case of `Cc1c(Cc2cnc(C(F)(F)F)nc2)c[nH]c1C(=O)NC1CC1`, in series [3], the IC50 is greater than 100000 nM. With `CCOC(=O)c1[nH]c(C)c(Cc2ccc(C(F)(F)F)nc2)c1C`, the EC50 with Plasmodium falciparum [4] turned out to be 9 nM. For the same molecule, in series [3], the IC50 is greater than 100000 nM.

In the case of `CCOC(=O)c1[nH]c(C)c(Cc2ccc(C(F)(F)F)cc2)c1C`, in the series on Plasmodium falciparum [4], the EC50 is 61 nM. For the same molecule, the IC50 in series [3] was greater than 100000 nM. As for `Cc1[nH]c(C(=O)NC2CC2)c(C)c1Cc1ccc(C(F)(F)F)nc1`, in series [3], the IC50 is greater than 100000 nM.

The molecule `O=C1CN(c2nc3cc(Cl)ccc3n2Cc2ccccc2)CCN1` gave an IC50 in the series on Plasmodium falciparum [5] greater than 1000 nM. The same measure, in the same setting: the result for `CC(=O)N1CCN(c2nc3cc(Cl)ccc3n2Cc2ccccc2)CC1` reads greater than 1000 nM; that for `Cc1ccc(S(=O)(=O)N2CCN(c3nc4cc(Cl)ccc4n3Cc3ccccc3)CC2)cc1`, 5260 nM.

Take `CCOC(=O)c1[nH]c(C)c(Cc2ccc(OCC)cc2)c1C`: in the series on Plasmodium falciparum [4], it took 230 nM to reach a half-maximal effect (EC50). Also, the IC50 in series [3] is greater than 100000 nM. In the series on Plasmodium falciparum [6], `C[C@H]1[C@H](C)CC[C@]2(C(=O)NCCCN3CCN(CCCNCc4ccc(O)cc4)CC3)CC[C@]3(C)C(=CC[C@@H]4[C@@]5(C)CC[C@H](O)C(C)(C)[C@@H]5CC[C@]43C)[C@H]12` (single isomer, unassigned) showed an IC50 of 80 nM. `CC[C@H]1OC(=O)[C@H](C)[C@@H](O[C@H]2C[C@@](C)(OC)[C@@H](O)[C@H](C)O2)[C@H](C)[C@@H](O[C@@H]2O[C@H](C)C[C@H](N(C)C)[C@H]2O)[C@](C)(O)C[C@@H](C)CN(C)[C@H](C)[C@@H](O)[C@]1(C)O` [AZITHROMYCIN] registered an IC50 in the series on Plasmodium falciparum [4] of 2650 nM.

`C[C@H]1[C@H](C)CC[C@]2(C(=O)O)CC[C@]3(C)C(=CC[C@@H]4[C@@]5(C)CC[C@H](O)C(C)(C)[C@@H]5CC[C@]43C)[C@H]12` [URSOLIC ACID] had an IC50 in the series on Plasmodium falciparum [6] of 52900 nM.
